This experiment relates to isolated rat's thoracic aorta ring. Briefly: Contraction of an isolated rat's thoracic aorta ring caused by KCl (vascular relaxation). Type of experiment: cell-based. The conditions noted are these: 80 mmol/L KCl, n=6; for IC50: isolated rat thoracic aorta ring with complete endodermis, read-out: IC50, inhibition of contraction of a vascular ring with complete endodermis caused by KCl. From the text: The effect of compounds of the present invention to the contraction of an isolated rat's thoracic aorta ring caused by KCl is described as follows:
The present invention synthesizes 21 new DHP compounds, and some of the compounds are selected for performing pharmacological tests. With reference to Comparison of vasodilatation effect between quercetin and rutin in the isolated rat thoracic aorta authored by ZHOU Xin-mei, YAO Hui, XIA Man-li, et al, and published in Journal of Zhejiang University: Medical Sciences, 2006, 35(1), 29-33 for an embodiment.
A male SD rat, 240-260 g, supplied by Institute of Laboratory Animal Breeding and Reproduction, Qing Long Shan of Jiang Ning. Certificate of Quality No.: SCXK (So) 2002-0018.
NaCl:118.3 mmol/L, KCl:4.7 mmol/L, CaCl2: 2.5 mmol/L, MgSO4.7H2O:1.2 mmol/L, KH2PO4:1.2 mmol/L, NaHCO3:25 mmol/L, and glucose:11.1 mmol/L.
Hit a male rat at its head until it faints. Quickly remove the thoracic aorta, and put it into a K-H solution passed with a mixed gas having 95% O2+5% CO2. Carefully remove connective tissues around the thoracic aorta and cut the blood vessel into a vascular ring of 3 mm wide. Avoid any excessive pulling to prevent damages to the endodermis. Hang the vascular ring into a bathing trough containing 30 ml of K-H liquid, and keep passing the mixed gas of 95% O2+5% CO2, and maintain the temperature at 37±0.5[…]. Adjust the rest tension to 2.0 g. Keep it in equilibrium for 2 hrs, and change the liquid once every 15 min.
Inspection of the activity of the endodermis of the blood vessel: After the thoracic aorta ring is stable, change the liquid once, and add 1 μmol/L of NA into the bathing trough. After the contraction has reached the peak value for 15 min., add 1 μmol/L of Ach. If the expected contraction of the vascular relaxation is greater than 60% after Ach is added, then the endodermis is considered to be complete, or else the endodermis will be damaged.
A thoracic aorta ring with a complete endodermis is selected for conducting the experiment. After the changed liquid is stable, Add 80 mmol/L KCl to induce the maximum contraction amplitude, sequentially accumulate the medications, such that the medicine concentrations are 0.05 μmol/L, 0.1 μmol/L, 0.5 μmol/L, 1 μmol/L, 2 μmol/L, 4 μmol/L, and 10 μmol/L respectively. Record the change of tensions. The vascular relaxation level is indicated by the inhibition rate. In other words, KCl induces a difference of values between the maximum tension of the contraction and the vascular tension after medicines with different concentrations are added. The ratio of differences of the values to the maximum contraction amplitude induced by KCl reflects the level of vascular relaxation. The sample size of the arota rings for each medicine group is 6. In other words, the experiment is performed repeatedly for 6 times.

The mark [1] stands for this setting: Rattus norvegicus, 0.1 μmol/L, x±S, read-out: Inhibition Rate (%).
The mark [2] stands for this setting: Rattus norvegicus, 0.5 μmol/L, x±S, read-out: Inhibition Rate (%).
Where [3] appears, read: Rattus norvegicus, 1 μmol/L, x±S, read-out: Inhibition Rate (%).
The mark [4] stands for this setting: Rattus norvegicus, 2 μmol/L, x±S, read-out: Inhibition Rate (%).
The mark [5] stands for this setting: Rattus norvegicus, 4 μmol/L, x±S, read-out: Inhibition Rate (%).

Where a name gives a salt, the structure may show the parent alone.

A word on the IC50: it is the midpoint of a concentration-inhibition curve. As usually defined, the inhibition is the change of the read-out against control, counted positive when it falls.

Regarding `COC(=O)C1=C(C)NC(C)=C(C(=O)OCCCN2CCN(CCOc3ccccc3OC)CC2)C1c1cccc([N+](=O)[O-])c1` (stereo not drawn) [Compound I4, 1,4-dihydro-2,6-dimethyl-4-(3-nitrophenyl)-3,5-pyridinecarboxylic acid methyl ester 3-(N-4-(2-(2-methoxyphenoxy)ethyl)piperazinyl)propyl ester hydrochloride], the IC50 is 2000 nM. Moreover, the inhibition at 0.1 µM under setting [1] is 13.2 ± 1.3%. In addition, under setting [2], the inhibition at 0.5 µM was 20.5 ± 2.2%. The inhibition at 1 µM under setting [3] came out at 33.8 ± 2.8%. Under setting [4], the inhibition at 2 µM is 59.4 ± 4%. Moreover, the inhibition at 4 µM under setting [5] was found to be 62.4 ± 4.8%. Moreover, the inhibition at 10 µM (Rattus norvegicus, 10 μmol/L, x±S, read-out: Inhibition Rate (%)) worked out at 72 ± 4.7%.

With `COC(=O)C1=C(C)NC(C)=C(C(=O)OCCCCN2CCN(CCOc3ccccc3OC)CC2)C1c1cccc([N+](=O)[O-])c1.Cl` (stereo not drawn) [Compound I5, 1,4-dihydro-2,6-dimethyl-4-(3-nitrophenyl)-3,5-pyridinecarboxylic acid methyl ester-4-(N-4-(2-(2-methoxyphenoxy)ethyl)piperazinyl)butyl ester hydrochloride], the IC50 was found to be 500 nM. For the same compound, the “Inhibition Rate (%)” value (0.1 μmol/L, x±S) stood at 24.5 ± 3.2%. For the same compound, the “Inhibition Rate (%)” value (0.5 μmol/L, x±S) stood at 47.9 ± 3.9%. For the same compound, the “Inhibition Rate (%)” value (1 μmol/L, x±S) is 66.0 ± 4.0%. Also, the “Inhibition Rate (%)” value (2 μmol/L, x±S) stood at 75.0 ± 3.5%. Also, the “Inhibition Rate (%)” value (4 μmol/L, x±S) is listed as 91.6 ± 3.2%. Moreover, the “Inhibition Rate (%)” value (10 μmol/L, x±S) was determined as 100.1 ± 3.0%.

Consider `COC(=O)C1=C(C)NC(C)=C(C(=O)OCCN2CCN(CCOC(c3ccccc3)c3ccccc3)CC2)C1c1cccc([N+](=O)[O-])c1.Cl` (stereo not drawn) [Compound I6, 1,4-dihydro-2,6-dimethyl-4-(3-nitrophenyl)-3,5-pyridinecarboxylic acid methyl ester2-(N-4-(diphenylmethoxyethyl)piperazinyl)ethyl ester hydrochloride], for which the IC50 is 1900 nM. In addition, for the setting “0.1 μmol/L, x±S”, the “Inhibition Rate (%)” value amounted to 9.3 ± 1.0%. Moreover, for the setting “0.5 μmol/L, x±S”, the “Inhibition Rate (%)” value stood at 20.5 ± 2.5%. Further, where the note is “1 μmol/L, x±S”, the “Inhibition Rate (%)” value came to 33.7 ± 2.4%. In addition, the “Inhibition Rate (%)” value (2 μmol/L, x±S) was 49.7 ± 3.5%. For the same compound, the “Inhibition Rate (%)” value (4 μmol/L, x±S) is 66.9 ± 3.6%. Besides, the “Inhibition Rate (%)” value (10 μmol/L, x±S) came out at 79.0 ± 4.5%.

`COC(=O)C1=C(C)NC(C)=C(C(=O)OCCN2CCN(CCOc3ccccc3OC)CC2)C1c1cccc([N+](=O)[O-])c1` (stereo not drawn) [Compound I14, 1,4-dihydro-2,6-dimethyl-4-(3-nitrophenyl)-3,5-pyridinecarboxylic acid methyl ester2-(N-4-(2-(2-methoxyphenoxy)ethyl)piperazinyl)ethyl ester hydrochloride]: the IC50 was 200 nM. For the same compound, where the note is “Rattus norvegicus, 0.05 μmol/L, x±S, read-out: Inhibition Rate (%)”, the inhibition at 0.05 µM turned out to be 27.4 ± 3.4%. The inhibition at 0.1 µM under setting [1] is 35.7 ± 3%. For the same compound, the inhibition at 0.5 µM under setting [2] is 62.9 ± 6.8%. Moreover, the inhibition at 1 µM under setting [3] was 81.7 ± 3.3%. Also, the inhibition at 2 µM under setting [4] turned out to be 96.2 ± 4.5%. In addition, under setting [5], the inhibition at 4 µM came to 101 ± 3.4%.

In the case of `COC(=O)C1=C(C)NC(C)=C(C(=O)OCCCN2CCN(CC(O)COc3ccccc3OC)CC2)C1c1cccc([N+](=O)[O-])c1.Cl` (stereo not drawn) [II2, 1,4-dihydro-2,6-dimethyl-4-(3-nitrophenyl)-3,5-pyridinecarboxylic acid methyl ester3-(N-4-(3-(2-methoxyphenoxy)-2-hydroxpropyl)piperazinyl)propyl ester hydrochloride], the IC50 stood at 800 nM. Also, the “Inhibition Rate (%)” value (0.1 μmol/L, x±S) is listed as 11.0 ± 1.5%. For the same compound, the “Inhibition Rate (%)” value (0.5 μmol/L, x±S) amounted to 32.2 ± 3.0%. In addition, where the note is “1 μmol/L, x±S”, the “Inhibition Rate (%)” value was 50.7 ± 5.7%. The “Inhibition Rate (%)” value (2 μmol/L, x±S) was 65.2 ± 4.2%. The “Inhibition Rate (%)” value (4 μmol/L, x±S) turned out to be 93.4 ± 3.1%. The “Inhibition Rate (%)” value (10 μmol/L, x±S) was 101.2 ± 3.2%.

Regarding “Levamlodipine Besylate [reference compound]”, the IC50 came to 4100 nM. Besides, the “Inhibition Rate (%)” value (0.1 μmol/L, x±S) is given as 4.5 ± 0.6%. The “Inhibition Rate (%)” value (0.5 μmol/L, x±S) is 18.4 ± 2.6%. Further, the “Inhibition Rate (%)” value (1 μmol/L, x±S) is reported as 37.7 ± 3.6%. In addition, the “Inhibition Rate (%)” value (2 μmol/L, x±S) came out at 46.8 ± 4.1%. The “Inhibition Rate (%)” value (4 μmol/L, x±S) is 69.0 ± 5.9%. The “Inhibition Rate (%)” value (10 μmol/L, x±S) was 84.6 ± 6.1%.

For the origin of these results see US8163907B2, “Dihydropyridine calcium antagonist compounds, preparation methods, and medical uses thereof” (Cosunter Pharmaceutical Company, priority 2008, dated 2012).
